{"source": "paper PMC11684029", "about": "“Discovery of VU6024578/BI02982816: An mGlu1 Positive Allosteric Modulator with Efficacy in Preclinical Antipsychotic and Cognition Models” (Journal of Medicinal Chemistry, 2024)", "key": {"[1]": {"biological_target": "mGlu1 (Mus musculus, UniProt P97772)", "sequence (P97772 21-1199)": "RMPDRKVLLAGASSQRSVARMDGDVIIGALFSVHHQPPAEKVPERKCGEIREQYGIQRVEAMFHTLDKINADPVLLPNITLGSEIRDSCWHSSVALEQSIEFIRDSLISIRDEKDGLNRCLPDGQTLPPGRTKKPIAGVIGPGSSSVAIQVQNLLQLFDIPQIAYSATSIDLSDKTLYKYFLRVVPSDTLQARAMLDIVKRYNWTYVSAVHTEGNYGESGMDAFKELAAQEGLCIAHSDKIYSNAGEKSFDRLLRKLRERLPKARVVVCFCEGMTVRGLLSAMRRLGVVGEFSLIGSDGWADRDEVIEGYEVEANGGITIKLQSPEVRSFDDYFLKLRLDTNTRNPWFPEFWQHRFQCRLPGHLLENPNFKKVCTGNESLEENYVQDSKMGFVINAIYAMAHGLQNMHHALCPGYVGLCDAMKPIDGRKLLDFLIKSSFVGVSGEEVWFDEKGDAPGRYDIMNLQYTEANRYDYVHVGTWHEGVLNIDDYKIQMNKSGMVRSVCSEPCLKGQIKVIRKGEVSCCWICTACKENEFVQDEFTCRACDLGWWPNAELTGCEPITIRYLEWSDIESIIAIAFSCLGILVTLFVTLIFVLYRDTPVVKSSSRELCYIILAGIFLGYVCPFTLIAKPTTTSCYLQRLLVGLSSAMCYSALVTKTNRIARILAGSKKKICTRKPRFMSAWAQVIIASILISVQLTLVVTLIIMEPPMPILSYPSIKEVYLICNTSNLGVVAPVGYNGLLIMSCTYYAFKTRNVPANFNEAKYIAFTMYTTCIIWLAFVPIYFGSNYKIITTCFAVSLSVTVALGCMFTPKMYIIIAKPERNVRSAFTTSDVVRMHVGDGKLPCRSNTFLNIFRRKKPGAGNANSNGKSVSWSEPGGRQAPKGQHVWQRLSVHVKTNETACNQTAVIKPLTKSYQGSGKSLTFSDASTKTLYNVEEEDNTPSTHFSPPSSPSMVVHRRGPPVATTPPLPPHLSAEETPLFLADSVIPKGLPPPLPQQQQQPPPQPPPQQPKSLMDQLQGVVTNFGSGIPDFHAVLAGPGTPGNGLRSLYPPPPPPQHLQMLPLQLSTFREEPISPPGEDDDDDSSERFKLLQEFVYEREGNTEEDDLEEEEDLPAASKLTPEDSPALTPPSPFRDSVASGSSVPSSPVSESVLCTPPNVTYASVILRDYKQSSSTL", "assay": "mGlu1 PAM assay, mouse receptor", "assay_type": "cell-based", "conditions": "n = 5", "method": "Over the course of the mGlu1 PAM program, 19d became an assay standard and was assayed multiple times, affording refined potency values.[20]"}, "[2]": {"test_system": "4-strain ± S9", "assay": "Ames test"}, "[3]": {"assay": "rat IP PBL study", "assay_type": "in vivo", "conditions": "3 mg/kg IP, at Tmax", "source_text": "Thus, 19d was a stable chemical entity in vivo. […] Overall, the rat PK and CNS penetration was supportive of in vivo work and progression down the development flow-chart."}, "[4]": {"test_system": "Sprague–Dawley rats", "assay": "catalepsy (latency to withdraw)", "assay_type": "in vivo", "conditions": "rat, doses up to 10 mg/kg p.o., 100 min postdose", "method": "In order to enable our target validation work, we first profiled PAM 19d in a rat locomotor battery to ensure that pharmacodynamic efficacy was not mistaken for gross effects on locomotion.[20] […] PK was performed in parallel to establish a PK/PD relationship.[24]\nControl rats were injected with 1.5 mg/kg of haloperidol i.p. (dissolved in 8% lactic acid and taken to volume of 50 mL with sterile water) and were returned to their home cage for 90 min. Cataleptic behavior is determined by placing the forelimbs on a bar raised 6 cm above the table and recording the amount of time it takes for the rat to withdraw the forelimbs with a cutoff of 60 s. Data are expressed as mean latency to withdraw + SEM or percent inhibition of catalepsy + SEM."}, "[5]": {"test_system": "C57BL/6JRj mice", "assay": "N1 sensory gating, MK-801 induced deficit", "assay_type": "in vivo", "conditions": "mouse, 10 mg/kg s.c.", "source_text": "We have also employed here event-related potentials (ERPs) and auditory-evoked oscillations, which serve as critical translational biomarkers, to assess the impact of our investigational drug on sensory processing and cognitive functions, providing valuable data on its potential efficacy in treating disorders like schizophrenia. Detailed description of the methodology, setup specifications and recording procedure and analysis of the 40 Hz auditory steady-state response (ASSR) protocol can be found in Schuelert et al.[27] […] Reduced entrainment of gamma oscillation reflects abnormalities in basic sensory registration and processing but is also associated with impaired higher cognitive functions.[32] ASSR can also be reliably impaired preclinically by different NMDA receptor antagonists.[33],[34] […] Abnormalities associated with the filtering or “gating” of sensory information are among the most consistent findings in schizophrenia research.[35] […]\nMice were placed in a plexiglass cage in an attenuated sound box and allowed to adapt to their environment for 20 min before subcutaneous administration of VU6024578 0.8, 4, and 10 mg/kg or vehicle (20% HP-β-CD in water). […] An infrared sensor on the Neurologger recorded the infrared trigger signals and trigger signals were saved in an individual trigger channel. […]"}, "[6]": {"test_system": "PDGF", "assay": "Eurofins radioligand binding panel", "design": "species or system mouse", "conditions": "agonist radioligand", "source_text": "(§1) Table S1. Eurofins Lead Profiling Screen Data\n(§2) This is a radioligand binding panel of 80 targets including GPCRs, ion channels, transporters and nuclear hormones. Biochemical assay results are presented as the percent inhibition of specific […]\n(§3) Results showing an inhibition or stimulation higher than 50% are considered to represent significant effect and are highlighted"}, "[7]": {"test_system": "sst (non-selective)", "assay": "Eurofins radioligand binding panel", "design": "species or system mouse", "conditions": "agonist radioligand", "source_text": "as §1, §2, §3"}, "[8]": {"test_system": "TNF-alpha", "assay": "Eurofins radioligand binding panel", "design": "species or system human", "conditions": "agonist radioligand", "source_text": "as §1, §2, §3"}, "[9]": {"test_system": "sigma (non-selective)", "assay": "Eurofins radioligand binding panel", "design": "species or system human", "conditions": "agonist radioligand", "source_text": "as §1, §2, §3"}}, "note": "Entries after “also recorded” stand apart in the source; their conditions may differ.", "data": [{"smiles": "Cn1nc(-c2ccnn2C)cc1CNC(=O)c1cc(-c2ccco2)ccc1Cl", "note": "[Compound 19d, 2-Chloro-N-((1,2′-dimethyl-1H,2’H-[3,3′-bipyrazol]-5-yl)methyl)-5-(furan-2-yl)benzamide]", "values": [{"measurement": "EC50", "setting": "[1]", "result": 27, "unit": "nM"}, {"measurement": "mouse mGlu1 Glumax", "setting": "[1]", "result": 89, "unit": "%"}, {"measurement": "mouse mGlu1 pEC50", "setting": "[1]", "result": "7.59 ± 0.07"}, {"measurement": "Ames test result", "setting": "[2]", "result": "negative"}, {"measurement": "Br[unbound]", "setting": "[3]", "result": 68, "unit": "nM"}, {"measurement": "catalepsy", "setting": "[4]", "result": "lack of effect; also recorded: without effect"}, {"measurement": "N1 sensory gating deficit induced by MK-801", "setting": "[5]", "result": "reversed"}, {"measurement": "% Inhibition at 10 µM", "setting": "[6]", "result": -2, "unit": "%"}, {"measurement": "% Inhibition at 10 µM", "setting": "[7]", "result": -12, "unit": "%"}, {"measurement": "% Inhibition at 10 µM", "setting": "[8]", "result": 2, "unit": "%"}, {"measurement": "% Inhibition at 10 µM", "setting": "[9]", "result": -11, "unit": "%"}]}]}
